Laboratory results from patent publication US9261498B2, “Biomarker for sensitivity to mTOR inhibitor therapy in kidney cancer” (The Regents of the University of California, priority 2005, dated 2016).
“Also recorded” adds a separate entry of the source.

Legend:
[1] = system: VHL knockdown xenograft tumors; test: Microvessel density by CD-31 immunolabeling in xenograft tumors; type: in vivo, SCID mice
Protocol: FIGS. 2A-2C. Effects of VHL knockdown on angiogenesis. (a) Microvessel density was quantified by CD-31 immunolabeling (arrows) in the xenograft tumors, and difference between CCI-779 treated (+) and vehicle (−) treated mice quantified (n=6 in each group). P<0.0033 for microvessel density counts in VHL shRNA compared to vector only (see blue bars). (b) Similar number of cells were plated and maintained in 10% serum rich media, in the presence (+) or absence (−) of 10 nM CCI-779. Thirty-six hours later, conditioned media was analyzed by anti-VEGF ELISA and cell extracts prepared for protein quantification. VEGF values were normalized to total cellular protein. Error bars equal one standard deviation (n=3). (c) Immunohistochemistry for VEGF protein was performed on paraffin embedded tumor xenografts from vehicle and CCI-779 treated mice.
Xenograft tumor samples were fixed in 10% buffered formalin and embedded in paraffin. […] Microvessel density was quantified by as described previously (Weidner, N. et al. J Natl Cancer Inst 84, 1875-87 (1992)). Briefly, microvessel density was determined by light microscopy in areas of the xenograft tumor containing highest numbers of capillaries and small venules (microvessels) per area (i.e. neovascular “hotspots”) by scanning the tumor sections at low power (40× and 100×). […]

[2] = system: HIF-2α; test: Immunoblot of HIF-2α protein in VHL knockdown RCC cells; type: cell-based, human; conditions: 1 and 10 nM CCI-779, 24 hours
Protocol: (a) SN12C-CSCG and SN12C-VHLshRNA cell were treated with vehicle, 1 nM or 10 nM of CCI-779 and lysed 24 hours later. Lysates were subjected to immunoblotting for HIF-1α, HIF-2α, GLUT-1, CA-IX, p-eIF4G, p-S6 Ribosomal protein. Equal protein loading was verified using anti-β-actin antibody. (b) HIF-1α expression was probed by immunoblotting in SN12C-MSCV-5′TOP-HIF-1α cDNA (left panel) and SN12C-MSCV-HIF-1α cDNA (tight panel) post 24 hours of vehicle, 1 nM or 10 nM of CCI-779.
Cells and xenograft tumors were lysed in ECB lysis buffer (see, e.g. Kondo et al., Cancer Cell 1, 237-46 (2002)) or high-detergent buffer (2% SDS), (see, e.g. Chen et al., Nat Med 10, 33-9 (2004)), respectively, supplemented with complete protease and phosphatase inhibitor cocktails (Calbiochem). […] Bound antibody was detected using enhanced chemiluminescence (ECL, Amersham). For VEGF ELISA quantification, cells were plated in 6 well plates (1×10^5 per well). […] Thirty-six hours later, VEGF ELISA (R&D Systems) was performed according to the manufacturer's instructions, using a Fisher Plate reader. […]
Cells and xenograft tumors were lysed in ECB lysis buffer or high-detergent buffer (2% SDS), respectively, supplemented with complete protease and phosphatase inhibitor cocktails (Calbiochem). […] Bound antibody was detected using enhanced chemiluminescence (ECL, Amersham). […]

## CO[C@H]1C[C@@H]2CC[C@@H](C)[C@@](O)(O2)C(=O)C(=O)N2CCCC[C@H]2C(=O)O[C@H]([C@H](C)C[C@@H]2CC[C@@H](OC(=O)C(C)(CO)CO)[C@H](OC)C2)CC(=O)[C@H](C)/C=C(\C)[C@@H](O)[C@@H](OC)C(=O)[C@H](C)C[C@H](C)/C=C/C=C/C=C/1C [CCI-779]
[1]; CCI-779 treated vs vehicle
  angiogenesis as measured by microvessel density: objective decrease in angiogenesis
[1]; CD-31 staining, CCI-779 0.1 mg/kg vs vehicle
  decrease in microvessel density: greater than 50%
[2]
  HIF-2α protein levels: dramatically reduced; also recorded: reduction; also recorded: decrease
